Reference: US20020172974A1, “Method of screening for antimicrobial compounds” (priority 1997, published 2002)

Assays:
E. coli JM109 [pSB311] = assay: dual culture bioluminescence assay, reading before octanal substrate addition; format: cell-based; details: E. coli/S. aureus co-culture, 5 hours at 37° C., FIG. 1
Description: E. coli JM109 [pSB311] has a plasmid that contains the entire lux gene cassette (luxCDABE) from Photorhabdus luminescens. In this organism bioluminescence initiation is independent on the addition of aldehyde substrate.
E. coli JM109 was grown overnight at 37° C. in Brain Heart Infusion (BHI) broth to give approximately 1×10^9 CFU/ml.
(§1) S. aureus RN4220 [PKF1] was grown overnight at 37° C. in Brain Heart Infusion (BHI) broth containing 10 ug/ml chloramphenicol to give approximately 1×10^9 CFU/ml. The overnight cultures were diluted to give 1×10^6 CFU/ml for E. coli and 1×10^7 CFU/ml for S. aureus and 25 μl of each organism was added to each well.
(§2) Test compounds were serially diluted in BHI and 50 μl was added to each well of a 96 well microtitre plate.
(§3) The plate was incubated for 5 hours at 37° C. and bioluminescence from compound treated cells was compared with non-treated cells using a luminometer (Wallac LB96B) to give bioluminescence output for E. coli (no substrate addition).

S. aureus RN4220 [pKF1] = assay: dual culture bioluminescence assay, reading after octanal addition minus initial reading; format: cell-based; details: E. coli/S. aureus co-culture, 5 hours at 37° C., RLU after octanal minus initial reading, FIG. 3
Description: S. aureus RN4220 [pKF1] has a plasmid that contains only luxAB genes so bioluminescence is dependent on the addition of aldehyde substrate. Chloramphenicol resistance is used as a selective marker for plasmid maintenance.
as §1, §2, §3
To monitor the effect of the antibiotics on S. aureus bioluminescence 50 μl of 0.01% (v/v) octanal substrate was added to each well and bioluminescence was measured immediately after substrate addition to each individual well (Total RLU's for both E. coli and S. aureus). To obtained RLU's for S. aureus the initial RLU reading was subtracted from the reading taken immediately following substrate addition.

Row | Structure (SMILES) | concentrations required to inhibit bioluminescence (E. coli JM109 [pSB311]; no substrate addition) | activity against S. aureus (in words) (S. aureus RN4220 [pKF1]) | potency against E. coli (comparison in words) (E. coli JM109 [pSB311]; compared with mupirocin)
1 | C/C(=C\C(=O)OCCCCCCCCC(=O)O)C[C@@H]1OC[C@H](C[C@@H]2O[C@H]2[C@@H](C)[C@H](C)O)[C@@H](O)[C@H]1O [mupirocin] | greater than 64 μl/ml | potent activity | 
2 | CC1(C)S[C@@H]2[C@H](NC(=O)[C@H](N)c3ccc(O)cc3)C(=O)N2[C@H]1C(=O)O [Amoxicillin] |  | potent activity | more potent
